According to patent publication EP3046573B1, “AMYLIN ANALOGUES” (Zealand Pharma A/S, priority 2013, dated 2015):
Numbered stars: 1 amine (or outer) side, 2 acyl side, 3 side chain; on linkers, the order of the positions; unused ones are H or OH. Bridge positions count the residues as written; N and C are the ends. Square brackets hold non-standard residues; d marks the D form. Peptide text beside a SMILES is read from it. * marks the point of attachment. C20 diacid = O=C(O)CCCCCCCCCCCCCCCCCCC(=O)*; γGlu = O=C(O)[C@H](CCC(=O)[*:2])N[*:1]; NMeI = CC[C@H](C)[C@H](NC)C(=O)O; Sar = CNCC(=O)O

Key:
[1] = system: Sprague Dawley (SD) rats; assay: Acute food intake and body weight in normal Sprague Dawley rats; format: in vivo; details: vehicle-corrected, dose 30 nmol/kg sc, once; for Body weight loss (%) after 96 hours: mean ± SEM, n = 8
How it was run: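 Normal male-unspecified SD rats, n = 8 per group, given a single s.c. peptide dose of 30 nmol/kg just before dark phase, with vehicle and positive control groups. Food intake recorded at 0, 4, 7, 10, 24, 48, 72 and 96 h; body weight daily; means ± SEM.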

[2] = Pharmacokinetic (PK) profiling in rats; format: in vivo; details: male, Sprague Dawley, rat, plasma, single sc bolus, 100 nmol/kg (18, NN96), 20 nmol/kg (72, 76), 30 nmol/kg (73, 82, 118, 162, 166, 172); for CL/F: apparent clearance; for half-life: terminal elimination half-life, read-out: t½ (converted)
Description: Sprague Dawley male rats were given a single subcutaneous (sc) bolus of each peptide to be tested at doses as specified below..
Study A: Following the administration of a 100 nmol/kg dose of a test peptide of the invention (Compound 18) and a comparison pramlintide analogue NN96 (see Example 5, above), respectively, blood samples were drawn from the tail vein at 0.5, 3, 8, 15, 36, 60 and 81 hours post-dosing. 4 rats were used (2 rats per compound). The rats were euthanized immediately after the last blood sampling by overdose of O2/CO2.
Study B: 20 nmol/kg doses of Compound 72 and Compound 76, respectively, of the invention were administered. Blood samples were drawn by sublingual bleeding prior to dosing and at 2, 6, 12, 24, 48, 72 and 96 hours after dosing. 4 rats were used (2 rats per compound). The rats were euthanized immediately after the last blood sampling by overdose of O2/CO2.
Study C: 30 nmol/kg doses of Compound 73, Compound 82 and Compound 118, respectively, of the invention were administered. Blood samples were drawn from the tail vein prior to dosing and at 24, 48, 72 and 96 hours after dosing. Blood samples were taken from two rats at each time point, and only 2 blood samples were drawn from each rat, i.e. 8 rats were used for each compound. The rats were euthanized immediately after the last blood sampling by concussion and cervical dislocation.
Study D: 30 nmol/kg doses of Compound 162, Compound 166 and Compound 172 were administered. Blood samples were drawn from the tail vein prior to dosing and at 24, 48, 72, 96 and 168 hours after dosing. Blood samples were taken from two rats at each time point, and only 2 blood samples were drawn from each rat, i.e. 10 rats were used for each compound. The rats were euthanized immediately after the last blood sampling by concussion and cervical dislocation.
The dosing vehicle used for each test peptide was a mannitol-containing histidine buffer (pH 7.0). Plasma samples were analyzed after precipitation with ethanol by liquid chromatography mass spectrometry (LC-MS/MS). Mean plasma concentrations were used for calculation of the pharmacokinetic parameters using the non-compartmental approach in Phoenix WinNonlin 6.3.
Plasma terminal elimination half-life (t½) was determined as In(2)/λz, where λz is the magnitude of the slope of the log linear regression of the log concentration versus time profile during the terminal phase. Apparent clearance (CL/F) was determined as dose/AUCinf (sc), where AUCinf is the area under the plasma concentration vs. time curve extrapolated to infinity (AUCinf = AUClast + Clast/λz, where Clast is the last observed plasma concentration).

[3] = Assessment of physical stability: fibril formation detected with Thioflavin T (ThT), lag-time; format: physicochemical; details: 1 mg/ml peptide, 40 µM ThT, FND = Fibrillation not detected; for Fibrillation lag time (hours) pH 4.0 (Ac): 50 mM acetate buffer pH 4.0, 96 hours at 40°C; for Fibrillation lag time (hours) pH 7.0 (His): 50 mM histidine buffer pH 7.0, 96 hours at 40°C; for Fibrillation lag time (hours) pH 7.0 (Ph): 50 mM phosphate buffer pH 7.0, 96 hours at 40°C
How it was run: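 Test peptide at 1 mg/ml with 40 µM ThT in 50 mM phosphate (pH 7.0), 50 mM histidine (pH 7.0) or 50 mM acetate (pH 4.0), in triplicate, 40° C. for 96 h. Fluorescence read every 10 min after 300 s agitation. Lag-time (h) taken as intersection of linear fits to initial stable and growth phases.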

CL/F [2] [mL/h/kg] | half-life [2] [min] | Fibrillation lag time (hours) pH 4.0 (Ac) [3] | Fibrillation lag time (hours) pH 7.0 (His) [3] | Fibrillation lag time (hours) pH 7.0 (Ph) [3] | SMILES | Food intake inhibition (%) after 48 hours [1] [%] | Body weight loss (%) after 96 hours [1] [%]
3.53 | 2240 | FND | FND | FND | CC[C@H](C)[C@@H](C(=O)N[C@@H](CC(C)C)C(=O)N[C@@H](CO)C(=O)N[C@@H](CO)C(=O)N[C@H](C(=O)N[C@@H](CCC(=O)O)C(=O)N[C@H](C(=O)NCC(=O)N[C@@H](CO)C(=O)N[C@@H](CCC(=O)O)C(=O)N[C@H](C(=O)N1CCC[C@H]1C(N)=O)[C@@H](C)O)C(C)C)[C@@H](C)O)N(C)C(=O)[C@H](C)NC(=O)CN(C)C(=O)[C@H](Cc1ccccc1)NC(=O)[C@H](CO)NC(=O)[C@H](CO)NC(=O)[C@H](CO)NC(=O)[C@H](CO)NC(=O)[C@H](CCCNC(=N)N)NC(=O)[C@H](Cc1c[nH]cn1)NC(=O)[C@H](CC(C)C)NC(=O)[C@H](Cc1ccccc1)NC(=O)[C@H](CCC(=O)O)NC(=O)[C@H](C)NC(=O)[C@H](CC(C)C)NC(=O)[C@H](CCCNC(=N)N)NC(=O)[C@H](CCC(N)=O)NC(=O)[C@@H](NC(=O)[C@H](C)NC(=O)[C@@H]1CSSC[C@H](NC(=O)[C@H](CCCNC(=N)N)NC(=O)CC[C@H](NC(=O)CCCCCCCCCCCCCCCCCCC(=O)O)C(=O)O)C(=O)N[C@@H](CC(N)=O)C(=O)N[C@@H]([C@@H](C)O)C(=O)N[C@@H](C)C(=O)N[C@@H]([C@@H](C)O)C(=O)N1)[C@@H](C)O [Compound 76, [19CD]-isoGlu-RC()NTATC()ATQRLAEFLHRSSSSF-Gly(Me)-A-Ile(Me)-LSSTEVGSETP-NH2] ({C20 diacid-γGlu}-RCNTATCATQRLAEFLHRSSSSF[Sar]A[NMeI]LSSTEVGSETP-NH2; disulfide 2-7) | 100 | 11 ± 1.2
4.01 | 2650 | FND | FND | FND | CC[C@H](C)[C@@H](C(=O)N[C@@H](CC(C)C)C(=O)N[C@@H](CO)C(=O)N[C@@H](CO)C(=O)N[C@H](C(=O)N[C@@H](CCC(=O)O)C(=O)N[C@H](C(=O)NCC(=O)N[C@@H](CO)C(=O)N[C@@H](CCC(=O)O)C(=O)N[C@H](C(=O)N1CCC[C@H]1C(N)=O)[C@@H](C)O)C(C)C)[C@@H](C)O)N(C)C(=O)[C@H](C)NC(=O)CN(C)C(=O)[C@H](Cc1ccccc1)NC(=O)[C@H](CO)NC(=O)[C@H](CO)NC(=O)[C@H](CCCNC(=N)N)NC(=O)[C@H](Cc1c[nH]cn1)NC(=O)[C@H](CC(C)C)NC(=O)[C@H](Cc1ccccc1)NC(=O)[C@H](CCC(=O)O)NC(=O)[C@H](C)NC(=O)[C@H](CC(C)C)NC(=O)[C@H](CCCNC(=N)N)NC(=O)[C@H](CCC(N)=O)NC(=O)[C@@H](NC(=O)[C@H](C)NC(=O)[C@@H]1CSSC[C@H](NC(=O)[C@H](CCCNC(=N)N)NC(=O)CC[C@H](NC(=O)CCCCCCCCCCCCCCCCCCC(=O)O)C(=O)O)C(=O)N[C@@H](CC(N)=O)C(=O)N[C@@H]([C@@H](C)O)C(=O)N[C@@H](C)C(=O)N[C@@H]([C@@H](C)O)C(=O)N1)[C@@H](C)O [Compound 82, [19CD]-isoGlu-RC()NTATC()ATQRLAEFLHRSSF-Gly(Me)-A-Ile(Me)-LSSTEVGSETP-NH2] ({C20 diacid-γGlu}-RCNTATCATQRLAEFLHRSSF[Sar]A[NMeI]LSSTEVGSETP-NH2; disulfide 2-7) | 93 | 13 ± 1.0
3.51 | 3380 | FND | FND | FND | CC[C@H](C)[C@@H](C(=O)N[C@@H](CC(C)C)C(=O)N[C@@H](CO)C(=O)N[C@@H](CO)C(=O)N[C@H](C(=O)N[C@@H](CCC(=O)O)C(=O)N[C@H](C(=O)NCC(=O)N[C@@H](CO)C(=O)N[C@@H](CCC(=O)O)C(=O)N[C@H](C(=O)N1CCC[C@H]1C(N)=O)[C@@H](C)O)C(C)C)[C@@H](C)O)N(C)C(=O)[C@H](C)NC(=O)CN(C)C(=O)[C@H](Cc1ccccc1)NC(=O)[C@H](CO)NC(=O)[C@H](CO)NC(=O)[C@H](CO)NC(=O)[C@H](CO)NC(=O)[C@H](CCCNC(=N)N)NC(=O)[C@H](Cc1c[nH]cn1)NC(=O)[C@H](CC(C)C)NC(=O)[C@H](Cc1ccccc1)NC(=O)[C@H](CCC(=O)O)NC(=O)[C@H](C)NC(=O)[C@H](CC(C)C)NC(=O)[C@H](CCCNC(=N)N)NC(=O)[C@H](C)NC(=O)[C@@H](NC(=O)[C@H](C)NC(=O)[C@@H]1CSSC[C@H](NC(=O)[C@H](CCCNC(=N)N)NC(=O)CC[C@H](NC(=O)CCCCCCCCCCCCCCCCCCC(=O)O)C(=O)O)C(=O)N[C@@H](CC(N)=O)C(=O)N[C@@H]([C@@H](C)O)C(=O)N[C@@H](C)C(=O)N[C@@H]([C@@H](C)O)C(=O)N1)[C@@H](C)O [Compound 118, [19CD]-isoGlu-RC()NTATC()ATARLAEFLHRSSSSF-Gly(Me)-A-Ile(Me)-LSSTEVGSETP-NH2] ({C20 diacid-γGlu}-RCNTATCATARLAEFLHRSSSSF[Sar]A[NMeI]LSSTEVGSETP-NH2; disulfide 2-7) | 93 | 13 ± 1.8
5.92 | 1790 | FND | FND | FND | CC[C@H](C)[C@@H](C(=O)N[C@@H](CC(C)C)C(=O)N[C@@H](CO)C(=O)N[C@@H](CO)C(=O)N[C@H](C(=O)N[C@@H](CCC(=O)O)C(=O)N[C@H](C(=O)NCC(=O)N[C@@H](CO)C(=O)N[C@@H](CCC(=O)O)C(=O)N[C@H](C(=O)N1CCC[C@H]1C(N)=O)[C@@H](C)O)C(C)C)[C@@H](C)O)N(C)C(=O)[C@H](C)NC(=O)CN(C)C(=O)[C@H](Cc1ccccc1)NC(=O)[C@H](CO)NC(=O)[C@H](CO)NC(=O)[C@H](CCCNC(=N)N)NC(=O)[C@H](Cc1c[nH]cn1)NC(=O)[C@H](CC(C)C)NC(=O)[C@H](Cc1ccccc1)NC(=O)[C@H](CCC(=O)O)NC(=O)[C@H](C)NC(=O)[C@H](CC(C)C)NC(=O)[C@H](CCCNC(=N)N)NC(=O)[C@H](CCC(=O)O)NC(=O)[C@@H](NC(=O)[C@H](C)NC(=O)[C@@H]1CSSC[C@H](NC(=O)[C@H](CCCNC(=N)N)NC(=O)CC[C@H](NC(=O)CCCCCCCCCCCCCCCCCCC(=O)O)C(=O)O)C(=O)NCC(=O)N[C@@H]([C@@H](C)O)C(=O)N[C@@H](C)C(=O)N[C@@H]([C@@H](C)O)C(=O)N1)[C@@H](C)O [Compound 162, [19CD]-isoGlu-RC()GTATC()ATERLAEFLHRSSF-Gly(Me)-A-Ile(Me)-LSSTEVGSETP-NH2] ({C20 diacid-γGlu}-RCGTATCATERLAEFLHRSSF[Sar]A[NMeI]LSSTEVGSETP-NH2; disulfide 2-7) | 99 | 13 ± 2.2
